In PubChem BioAssay (NCI):
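Grown in 96-well plates, cells were treated for 48 hours with each compound at five concentrations. Insufficient inhibition: endpoint recorded as highest concentration tested. Definition used: TGI = concentration required for complete inhibition of growth.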

Key:
Experiment in all cases: DTP human tumour cell line panel, 48 h
[1] = tested on: SK-MEL-28 melanoma
[2] = tested on: TK-10 renal
[3] = tested on: NCI-H460 lung
[4] = tested on: NCI-H522 lung
[5] = tested on: KM12 colon
[6] = tested on: PC-3 prostate
[7] = tested on: T-47D breast
[8] = tested on: NCI-H23 lung
[9] = tested on: A549 NSCLC
[10] = tested on: OVCAR-8 ovarian
[11] = tested on: SNB-19 CNS
[12] = tested on: CAKI-1 renal
[13] = tested on: HCT-116 colon
[14] = tested on: OVCAR-5 ovarian
[15] = tested on: SK-MEL-5 melanoma
[16] = tested on: MDA-MB-231 breast
[17] = tested on: SR leukemia
[18] = tested on: IGROV1 ovarian
[19] = tested on: SN12C renal
[20] = tested on: OVCAR-4 ovarian
[21] = tested on: COLO 205 colon
[22] = tested on: MALME-3M melanoma
[23] = tested on: BT-549 breast
[24] = tested on: K-562 leukemia
[25] = tested on: UACC-62 melanoma
[26] = tested on: 786-0 renal
[27] = tested on: SK-MEL-2 melanoma
[28] = tested on: UACC-257 melanoma
[29] = tested on: SF-539 CNS
[30] = tested on: MOLT-4 leukemia
[31] = tested on: MDA-N
[32] = tested on: LOX IMVI melanoma
[33] = tested on: NCI/ADR-RES ovarian
[34] = tested on: HCT-15 colon
[35] = tested on: OVCAR-3 ovarian
[36] = tested on: A498 renal
[37] = tested on: U251 CNS
[38] = tested on: HCC-2998 colon
[39] = tested on: MCF7 breast
[40] = tested on: ACHN renal
[41] = tested on: NCI-H226 lung
[42] = tested on: SF-295 CNS
[43] = tested on: CCRF-CEM leukemia
[44] = tested on: SF-268 CNS
[45] = tested on: EKVX NSCLC
[46] = tested on: M14 melanoma
[47] = tested on: SK-OV-3 ovarian
[48] = tested on: HOP-62 NSCLC
[49] = tested on: UO-31 renal
[50] = tested on: HT29 colon
[51] = tested on: HS 578T breast
[52] = tested on: MDA-MB-435
[53] = tested on: DU-145 prostate
[54] = tested on: RPMI-8226 leukemia
[55] = tested on: SNB-75 CNS
[56] = tested on: RXF 393 renal
[57] = tested on: HL-60(TB) leukemia
[58] = tested on: HOP-92 NSCLC
[59] = tested on: SW-620 colon

Structure (SMILES): CC1=NN(c2nc(N)nc(/C(C#N)=C\c3ccc([N+](=O)[O-])s3)n2)C(C)(C)C1
- TGI [1]: 1.21 µM
- TGI [2]: 1.26 µM
- TGI [3]: 0.553 µM
- TGI [4]: 0.354 µM
- TGI [5]: 1.85 µM
- TGI [6]: 0.429 µM
- TGI [7]: 0.264 µM
- TGI [8]: 3.32 µM
- TGI [9]: 16.5 µM
- TGI [10]: 0.21 µM
- TGI [11]: 5.97 µM
- TGI [12]: > 21 µM
- TGI [13]: 1.23 µM
- TGI [14]: 21.5 µM
- TGI [15]: 1.84 µM
- TGI [16]: 0.465 µM
- TGI [17]: 0.152 µM
- TGI [18]: 0.287 µM
- TGI [19]: 1.51 µM
- TGI [20]: 12.1 µM
- TGI [21]: 1.61 µM
- TGI [22]: 3.87 µM
- TGI [23]: 2.44 µM
- TGI [24]: 0.355 µM
- TGI [25]: 2.25 µM
- TGI [26]: 0.289 µM
- TGI [27]: 1.66 µM
- TGI [28]: 0.544 µM
- TGI [29]: 0.467 µM
- TGI [30]: 0.379 µM
- TGI [31]: 2.6 µM
- TGI [32]: 0.3 µM
- TGI [33]: 12.8 µM
- TGI [34]: 0.325 µM
- TGI [35]: 0.404 µM
- TGI [36]: 26.8 µM
- TGI [37]: 0.221 µM
- TGI [38]: 4.4 µM
- TGI [39]: 0.375 µM
- TGI [40]: 0.719 µM
- TGI [41]: 8.18 µM
- TGI [42]: 23.1 µM
- TGI [43]: 0.0942 µM
- TGI [44]: > 100 µM
- TGI [45]: 4.28 µM
- TGI [46]: 0.8 µM
- TGI [47]: 49.3 µM
- TGI [48]: 1.75 µM
- TGI [49]: 0.278 µM
- TGI [50]: 0.722 µM
- TGI [51]: > 100 µM
- TGI [52]: 0.405 µM
- TGI [53]: 0.597 µM
- TGI [54]: 0.0872 µM
- TGI [55]: 1.93 µM

Structure (SMILES): O=P(O)(O)CCP(=O)(O)O
- TGI [1]: > 100 µM
- TGI [2]: > 100 µM
- TGI [3]: > 100 µM
- TGI [4]: > 100 µM
- TGI [5]: > 100 µM
- TGI [6]: > 100 µM
- TGI [7]: > 100 µM
- TGI [8]: > 100 µM
- TGI [56]: > 100 µM
- TGI [9]: > 100 µM
- TGI [10]: > 100 µM
- TGI [11]: > 100 µM
- TGI [12]: > 100 µM
- TGI [13]: > 100 µM
- TGI [14]: > 100 µM
- TGI [15]: > 100 µM
- TGI [16]: > 100 µM
- TGI [57]: > 100 µM
- TGI [17]: > 100 µM
- TGI [18]: > 100 µM
- TGI [19]: > 100 µM
- TGI [58]: > 100 µM
- TGI [20]: > 100 µM
- TGI [21]: > 100 µM
- TGI [22]: > 100 µM
- TGI [23]: > 100 µM
- TGI [24]: > 100 µM
- TGI [25]: > 100 µM
- TGI [26]: > 100 µM
- TGI [27]: > 100 µM
- TGI [28]: > 100 µM
- TGI [29]: > 100 µM
- TGI [30]: > 100 µM
- TGI [31]: > 100 µM
- TGI [32]: > 100 µM
- TGI [33]: > 100 µM
- TGI [34]: > 100 µM
- TGI [35]: > 100 µM
- TGI [36]: > 100 µM
- TGI [37]: > 100 µM
- TGI [39]: > 100 µM
- TGI [40]: > 100 µM
- TGI [42]: > 100 µM
- TGI [43]: > 100 µM
- TGI [44]: > 100 µM
- TGI [45]: > 100 µM
- TGI [59]: > 100 µM
- TGI [46]: > 100 µM
- TGI [47]: > 100 µM
- TGI [48]: > 100 µM
- TGI [49]: > 100 µM
- TGI [50]: > 100 µM
- TGI [51]: > 100 µM
- TGI [52]: > 100 µM
- TGI [53]: > 100 µM
- TGI [54]: > 100 µM
